The values below come from article PMC7026589, “Sensitive CometChip assay for screening potentially carcinogenic DNA adducts by trapping DNA repair intermediates” (Nucleic Acids Research, 2019).

“And” between values parts separate entries of the source, which are not always exact repeats. Identical values can stand only once. Like-named read-outs stand apart in the source and are kept apart here.

In data set [1] the test system is HepaRG™ cells. An excerpt: Cryopreserved HepaRG™ (HPRGC10), a terminally differentiated hepatic cell line, was purchased from ThermoFisher Scientific (Waltham, MA). HepaRG™ was thawed and cultured according to manufacturer's instructions. Briefly, the general purpose working medium was WEM supplemented with 1X GlutaMAX™ and 1X HepaRG™ Thaw, Plate, & General Purpose Medium Supplement. The metabolism working medium was WEM supplemented with 1X GlutaMAX™ and HepaRG™ Maintenance/Metabolism Medium Supplement. HepaRG™ cells were thawed in the general purpose working medium and plated in a 96-well plate coated with collagen I at 100 000 cells/well. One day after plating, the general purpose working medium was changed to the metabolism working medium. The metabolism working medium was renewed on day 4 and day 6 after plating. On day 7, the cells were treated in the metabolism working medium.
(§1) To load cells into microwells, ∼2000–200 000 cells in suspension were placed into each macrowell, and the chip was incubated at 37°C in the presence of 5% CO2 for 15 min. Cell were loaded into microwells by gravity, and excess cells were then washed off with PBS by shear force. The chip was covered with a layer of overlay agarose (1% w/v low-melting point agarose solution in PBS, kept molten at 43°C until use). For complete gelation of the overlay agarose, the chip was kept at room temperature for two minutes followed by 2 min at 4°C.
(§2) The alkaline comet assay was performed as previously ([15],[79]). Sodium chloride (NaCl, 7581), disodium EDTA (Na2EDTA, 4931), and sodium hydroxide pellets (NaOH, 7708) were purchased from VWR, Radnor, PA. Trizma® base (T1503), Trizma® HCl (T5941) and Triton X-100 (X-100) were obtained from MilliporeSigma, St. Louis, MO. 10 000× SYBR™ Gold nucleic acid gel stain was obtained from ThermoFisher Scientific, Waltham, MA.
(§3) The alkaline lysis buffer (pH ∼ 10) was a solution of 2.5 M NaCl, 100 mM Na2EDTA, 10 mM Trizma® base, and 1% (v/v) Triton X-100 dissolved in deionized H2O (dI H2O). […] The neutralization buffer (pH ∼ 7.5) was prepared by dissolving Trizma® HCl in distilled H2O to a final concentration of 0.4 M.
(§4) Cells encapsulated in CometChip were lysed in the alkaline lysis buffer overnight at 4°C. The nuclei were unwound in the alkaline unwinding buffer for 40 min at 4°C, and the DNA was electrophoresed in the same buffer at the same temperature for 30 min at 1 V/cm and ∼300 mA. The CometChip was then washed three times in neutralization buffer by submerging for 5 min each time.
(§5) The DNA on CometChip was stained for 15 min at room temperature with 1× of SYBR™ Gold diluted in PBS, protected from light. Fluorescent images of the comets were captured at 40× magnification using an epifluorescence microscope (Nikon Eclipse 80i, Nikon Instruments, Inc., Melville, NY, USA) with a 480 nm excitation filter. Image acquisition was achieved by automatic scanning using a motorized XY stage. Comet images were automatically analyzed using Guicometanalyzer, a custom software developed in MATLAB (The MathWorks Inc., Natick, MA, USA) as previously described ([15]). For each condition, 100 comets or more were analysed. Outputs from Guicometanalyzer were processed and imported to a spreadsheet (Microsoft Excel, Microsoft Office Suite 2016) using Comet2Excel, an in-house software developed in Python (Python Software Foundation, Python version 2.7.10). Software is freely available upon request.
For this experiment, the comets were analysed using Trevigen® Comet Analysis Software.
(§6) A vehicle control condition was included by diluting DMSO in cell culture medium to get a final concentration of 0.5%. Cells were incubated with the test compound for 24 h at 37°C in the presence of 5% CO2.
HepaRG™ were incubated with the test compound for 24 h at 37°C in the presence of 5% CO2. A vehicle control (1% DMSO) was included.

In data set [2] the test system is HepG2 cells. How it is done: HepG2 (ATCC® HB-8065™), an immortalized cell line derived from human hepatocellular carcinoma, was obtained from the American Type Culture Collection (Manassas, VA). HepG2 cells were cultured in high-glucose DMEM supplemented with 10% FBS, 1× GlutaMAX™, and 100 U/ml Pen-Strep. For chemical exposures, exponentially growing cells were plated in a tissue cultured treated 96-well plate two days before treatment.
as §1, §2, §3, §4, §5, §6
HepG2 were incubated with the test compound for 24 h at 37°C in the presence of 5% CO2. A vehicle control (0.07% sodium bicarbonate) was included.
Cells embedded in CometChip were placed on ice and irradiated with 0, 0.9, 1.8, 3.6, 5.4, 7.2 and 9 Gy of gamma rays from a Cs 137 radiation source with a dose rate of 0.9 Gy/min. The irradiated cells were submerged into lysis buffer overnight and the alkaline CometChip assay performed as described above.

The test system of data set [3] is TK6 cells.
The test system of data set [4] is HepaRG™ cells. The format is cell-based, human. How it is done: The CTG® luminescent cell viability assay kit (G7570) was obtained from Promega, Madison, WI. Cell viability after 24 h of chemical treatment was measured according to the manufacturer's instructions. Luminescent signals were recorded using a SpectraMax M2e microplate reader (Molecular Devices, Sunnyvale, CA, USA) at room temperature. The emission bracket was from 360 to 750 nm. Control wells with no cells were included to obtain background luminescence, which was then subtracted from the signal measured in the sample wells.

The conditions of data set [5]: cited from earlier work.
Data set [6] concerns the target T1, CYP1A2 (Homo sapiens, UniProt P05177). The format is cell-based. Particulars: human. The method, then: (§7) The CYP450-Glo™ CYP3A4 assay with luciferin-IPA (V9001) and the CYP450-Glo™ CYP1A2 assay with luciferin-1A2 (V8421) were purchased from Promega, Madison, WI. The activity levels of CYP3A4 and CYP1A2 in cells were measured according to the manufacturer's protocol for non-lytic cell-based assays. Luminescent signals were recorded using a SpectraMax M2e microplate reader (Molecular Devices, Sunnyvale, CA, USA). Control wells with no cells were included to obtain background luminescence. The net signal for each sample was obtained by subtracting the background luminescence value.
(§8) CYP3A4 or CYP1A2 activity per cell can be obtained by normalizing CYP450-Glo™ values with cell numbers. After a sample was analyzed for CYP3A4 or CYP1A2 activity, the CTG® assay was performed to obtain an estimate of the number of viable cells in the sample. The result from CYP450-Glo™ was then divided by the CTG® value to obtain the average CYP3A4 or CYP1A2 activity per cell.

Data set [7] has as its target T1, CYP1A2. The format is cell-based. Particulars: human. Further details: The activity levels of CYP3A4 and CYP1A2 in cells were measured according to the manufacturer's protocol for non-lytic cell-based assays; endogenous in cells; host or cells: HepG2. The method, then: as §7, §8
The mark [8] stands for this setting: 1 mM HU and 10 μM AraC, 24 h, doses with statistically significant result.
The mark [9] stands for this setting: 1 mM HU and 10 μM AraC, 24 h exposure.

T1 sequence (P05177 whole entry): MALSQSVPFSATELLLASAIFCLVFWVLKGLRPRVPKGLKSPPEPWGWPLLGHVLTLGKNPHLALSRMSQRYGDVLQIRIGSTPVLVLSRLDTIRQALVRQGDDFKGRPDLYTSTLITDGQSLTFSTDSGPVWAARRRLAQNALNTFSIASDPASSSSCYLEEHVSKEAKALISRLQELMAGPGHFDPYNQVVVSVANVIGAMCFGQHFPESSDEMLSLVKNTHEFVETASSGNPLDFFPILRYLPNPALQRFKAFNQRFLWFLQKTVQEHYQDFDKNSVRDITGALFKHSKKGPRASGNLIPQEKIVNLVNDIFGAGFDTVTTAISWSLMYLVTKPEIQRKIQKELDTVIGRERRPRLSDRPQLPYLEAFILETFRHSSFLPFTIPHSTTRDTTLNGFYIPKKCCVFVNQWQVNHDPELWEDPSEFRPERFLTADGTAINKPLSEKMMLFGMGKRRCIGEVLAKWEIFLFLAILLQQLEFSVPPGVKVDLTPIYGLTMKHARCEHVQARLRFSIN

For the compound `O=P1(N(CCCl)CCCl)NCCCO1` (centres unmarked) [CP, Cyclophosphamide monohydrate], in data set [1], the “DNA damage score” value is recorded as “positives”, the “Genotoxicity Alkaline CometChip HepaRG (+ HU + AraC) +/−” value is recorded as “+” and the “Genotoxicity Alkaline CometChip HepaRG +/−” value is reported as “−”. Besides, in data set [1] (human), the “Alkaline CometChip HepaRG (+ HU + AraC) ‘+’ dose range” value was in the range of 5 to 10 mM.
For Aflatoxin B1 [AFB1], the “SSBs, dose-response” value in data set [1] was “strong dose-response relationship”. Further, in data set [2], the “Average % Tail DNA” value is 21.9% and 33.4%; the “SSBs, dose-response” value was “relatively small increase in SSBs”. The “SSBs, response” value in data set [3] is reported as “no response”.
For `Oc1ccc(O)cc1` [HQ, Hydroquinone], in data set [1], the “Genotoxicity Alkaline CometChip HepaRG (+ HU + AraC) +/−” value is “+” and the “Genotoxicity Alkaline CometChip HepaRG +/−” value is given as “−”. Besides, the “Alkaline CometChip HepaRG (+ HU + AraC) ‘+’ dose range” value in data set [1] (human) is 0.33 mM. The “Cytotoxicity” value in data set [4] is on record as “high levels of cytotoxicity”.
With `CN(C)N=O` [NDMA, N-Nitrosodimethylamine], in data set [1] (setting [8]), the “Alkaline CometChip HepaRG (+ HU + AraC) ‘+’ dose range” value is 2.5 to 20 mM. Besides, the “Genotoxicity Alkaline CometChip HepaRG (+ HU + AraC) +/−” value in data set [1] (setting [9]) is given as “+”. Besides, the “DNA damage score” value in data set [1] (HepaRG, in the absence of HU/AraC, 24 h) is “positive result”. Also, the “Alkaline CometChip HepaRG ‘+’ dose range” value in data set [1] (without HU/AraC, 24 h, doses with statistically significant result) was 2.5 to 20 mM. The “Genotoxicity Alkaline CometChip HepaRG +/−” value in data set [1] (without HU/AraC, 24 h exposure) is recorded as “+”. In data set [5], the “Carcinogenicity IARC classification” value is reported as “Group 2A”.
`OO` [H2O2]: in data set [3] (TK6 cells, 50 μM H2O2), the “Comets on alkaline CometChip (comet tails)” value is recorded as “visibly large tails”.
Consider `N.N.[Cl][Pt][Cl]` [Cisplatin, cis-Diamineplatinum(II) dichloride], for which, in data set [1] (HepaRG, using HU/AraC, 24 h), the “DNA damage score” value is reported as “negative results”. In addition, the “Carcinogenicity IARC classification” value in data set [5] was “Group 2A”.
On to `C[C@H]1[C@H](OC(=O)CCC(=O)O)O[C@@H]2O[C@@]3(C)CC[C@H]4[C@H](C)CC[C@@H]1[C@@]24OO3` [artesunate, Artesunate], for which the “DNA damaging potential” value in data set [2] (HepG2, 24 h, absence vs presence of 1 mM HU and 10 μM AraC) is on record as “HU/AraC reveals a wider range of genotoxic artesunate doses”.
For the compound `O=C(N[C@H](CO)[C@H](O)c1ccc([N+](=O)[O-])cc1)C(Cl)Cl` [CAM, Chloramphenicol], the “Alkaline CometChip HepaRG (+ HU + AraC) ‘+’ dose range” value in data set [1] (setting [8]) amounted to 3.1 mM. For the same compound, in data set [4] (HepaRG, 24 h, CTG), the “Cytotoxicity” value was “high levels of cytotoxicity”.
On to `Nc1ccc(Cl)cc1` [PCA, p-Chloroaniline], for which the “DNA damage score” value in data set [1] (HepaRG, using HU/AraC, 24 h) is reported as “negative results”. This compound displayed a Cell death in data set [4] (HepaRG, highest dose (5 mM), 24 h) of approximately 50%. Moreover, the “Carcinogenicity IARC classification” value in data set [5] is given as “Group 2B”.
Consider `O=c1cc(-c2ccccc2)oc2c1ccc1ccccc12` [ANF, α-Naphthoflavone], for which the “DNA damage by inhibitor alone” value in data set [1], in data set [2] and in data set [3] was “does not induce DNA damage” each time. The “Level of B[a]P-induced SSBs in the presence of ANF” value in data set [1] and in data set [2] was “near background levels” in each case. The “B[a]P induction of CYP1A2 in the presence of ANF” value in data set [6] and in data set [7] was “induction of CYP1A2 is prevented” each time.
Turning to `COc1cc([C@@H]2c3cc4c(cc3[C@@H](O[C@@H]3O[C@@H]5CO[C@@H](C)O[C@H]5[C@H](O)[C@H]3O)[C@H]3COC(=O)[C@H]23)OCO4)cc(OC)c1O` [Etoposide], in data set [1], the “Genotoxicity Alkaline CometChip HepaRG (+ HU + AraC) +/−” value is listed as “+” and the “Genotoxicity Alkaline CometChip HepaRG +/−” value is recorded as “−”.
Turning to `CC(=O)N1CCN(c2ccc(OCC3COC(Cn4ccnc4)(c4ccc(Cl)cc4Cl)O3)cc2)CC1` (centres unmarked) [KET, Ketoconazole], the “DNA damage by inhibitor alone” value in data set [1], in data set [2] and in data set [3] was “does not induce DNA damage” each time. In addition, the “Level of AFB1-induced SSBs in the presence of KET” value in data set [1] is on record as “reduced to near background levels”.
For `Cc1ccc(N)cc1N` [2,4-DAT, 2,4-Diaminotoluene], the “Alkaline CometChip HepaRG (+ HU + AraC) ‘+’ dose range” value in data set [1] (setting [8]) came out at 10 mM. In data set [1] (setting [9]), the “Genotoxicity Alkaline CometChip HepaRG (+ HU + AraC) +/−” value is reported as “+”. In addition, in data set [1] (without HU/AraC, 24 h exposure), the “Genotoxicity Alkaline CometChip HepaRG +/−” value was “−”. Moreover, the “Carcinogenicity IARC classification” value in data set [5] was “Group 2B”.
